Where a name gives a salt, the structure may show the parent alone.
Tests used:
Test in all cases: stopped-flow CO2 hydration
Assay type in all cases: biochemical
hCA XII = biological target: T1, hCA XII (Homo sapiens, UniProt O43570); settings: read-out: Ki (nM)^b / hCA XII
T1 construct: gene CA12; recombinant, obtained in-house
Source text: stopped-flow CO2 hydration on hCA XII

hCA IX = biological target: T2, hCA IX (Homo sapiens, UniProt Q16790); settings: read-out: Ki (nM)^b / hCA IX
T2 construct: gene CA9; recombinant, obtained in-house
Source text: stopped-flow CO2 hydration on hCA IX

hCA I = biological target: T3, hCA I (Homo sapiens, UniProt P00915); settings: read-out: Ki (nM)^b / hCA I
T3 construct: gene CA1; recombinant, obtained in-house
T3 sequence (P00915 2-261): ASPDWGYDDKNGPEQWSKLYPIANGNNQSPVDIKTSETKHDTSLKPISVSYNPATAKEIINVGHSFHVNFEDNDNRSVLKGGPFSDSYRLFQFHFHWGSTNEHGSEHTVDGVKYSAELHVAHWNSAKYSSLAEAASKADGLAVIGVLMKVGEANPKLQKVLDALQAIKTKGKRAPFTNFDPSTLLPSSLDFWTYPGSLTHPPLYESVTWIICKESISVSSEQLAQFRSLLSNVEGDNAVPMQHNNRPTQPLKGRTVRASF
Source text: stopped-flow CO2 hydration on hCA I

hCA II = biological target: T4, hCA II (Homo sapiens, UniProt P00918); settings: read-out: Ki (nM)^b / hCA II
T4 construct: gene CA2; recombinant, obtained in-house
Source text: stopped-flow CO2 hydration on hCA II

T1 sequence (O43570 25-354): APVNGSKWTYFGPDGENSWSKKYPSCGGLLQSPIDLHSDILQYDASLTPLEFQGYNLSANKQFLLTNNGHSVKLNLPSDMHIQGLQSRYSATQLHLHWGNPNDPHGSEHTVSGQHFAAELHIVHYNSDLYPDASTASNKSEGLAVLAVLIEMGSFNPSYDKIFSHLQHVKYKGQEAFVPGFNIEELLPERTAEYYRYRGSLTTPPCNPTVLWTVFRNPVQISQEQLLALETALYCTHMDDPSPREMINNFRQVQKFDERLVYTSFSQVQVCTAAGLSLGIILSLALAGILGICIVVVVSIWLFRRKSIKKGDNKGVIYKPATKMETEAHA

CCOC(=O)C1CCN(S(N)(=O)=O)CC1 [2m, Ethyl 1-sulfamoylpiperidine-4-carboxylate]
Ki (hCA XII): 25.9 nM | Ki (hCA IX): 58.1 nM | Ki (hCA I): 62.8 nM | Ki (hCA II): 42.8 nM

NS(=O)(=O)Nc1cccc2ccccc12 [2u, N-(Naphthalen-1-yl)sulfamide]
Ki (hCA XII): 72.3 nM | Ki (hCA IX): 25.4 nM | Ki (hCA I): 160 nM | Ki (hCA II): 56.7 nM

NS(=O)(=O)N1CCC(O)CC1 [2a, 4-Hydroxypiperidine-1-sulphonamide]
Ki (hCA XII): 25.3 nM | Ki (hCA IX): 54.2 nM | Ki (hCA I): 75.6 nM | Ki (hCA II): 42.7 nM

NS(=O)(=O)N1CCCc2ccccc21 [2t, 3,4-Dihydroquinoline-1(2H)-sulphonamide]
Ki (hCA XII): 114 nM | Ki (hCA IX): 34.2 nM | Ki (hCA I): 231 nM | Ki (hCA II): 89.5 nM

NS(=O)(=O)NCc1ccc(F)cc1 [2c, N-(4-Fluorobenzyl)sulfamide]
Ki (hCA XII): 51.7 nM | Ki (hCA IX): 30.7 nM | Ki (hCA I): 126 nM | Ki (hCA II): 70.5 nM

NS(=O)(=O)NCc1cccnc1 [2j, (Pyridin-3-ylmethyl)sulfamide]
Ki (hCA XII): 16.5 nM | Ki (hCA IX): 29.5 nM | Ki (hCA I): 98.5 nM | Ki (hCA II): 90.2 nM

CC1Cc2ccccc2N1S(N)(=O)=O (centres unmarked) [2r, 2-Methylindoline-1-sulphonamide]
Ki (hCA XII): 116 nM | Ki (hCA IX): 94.7 nM | Ki (hCA I): 868 nM | Ki (hCA II): 316 nM

COC(=O)C1CCCN1S(N)(=O)=O (centres unmarked) [2f, Methyl sulfamoylprolinate]
Ki (hCA XII): 83.6 nM | Ki (hCA IX): 78.2 nM | Ki (hCA I): 52.1 nM | Ki (hCA II): 69.8 nM

NS(=O)(=O)NCC1CCCO1 (centres unmarked) [2e, N-((tetrahydrofuran-2-yl)methyl)sulfamide]
Ki (hCA XII): 98 nM | Ki (hCA IX): 92.7 nM | Ki (hCA I): 38.4 nM | Ki (hCA II): 63.4 nM

CN(C)CCN(Cc1ccccc1)S(N)(=O)=O [2i, Benzyl (2-(dimethylamino)ethyl)sulfamide]
Ki (hCA XII): 19.7 nM | Ki (hCA IX): 65.1 nM | Ki (hCA I): 28.4 nM | Ki (hCA II): 39.8 nM

NS(=O)(=O)N1CCNCC1 [2q, Piperazine-1-sulphonamide hydrochloride]
Ki (hCA XII): 100 nM | Ki (hCA IX): 78.2 nM | Ki (hCA I): 68.9 nM | Ki (hCA II): 52.9 nM

NS(=O)(=O)Nc1ncccn1 [2s, N-(Pyrimidin-2-yl)sulfamide]
Ki (hCA XII): 39.3 nM | Ki (hCA IX): 68 nM | Ki (hCA I): 29.6 nM | Ki (hCA II): 59.4 nM

NC(=O)C1CCN(S(N)(=O)=O)CC1 [2p, 1-Sulfamoylpiperidine-4-carboxamide]
Ki (hCA XII): 40.2 nM | Ki (hCA IX): 46.2 nM | Ki (hCA I): 88.2 nM | Ki (hCA II): 59.4 nM

NS(=O)(=O)N1CCOCC1 [2o, Morpholine-4-sulphonamide]
Ki (hCA XII): 101 nM | Ki (hCA IX): 82.1 nM | Ki (hCA I): 59.2 nM | Ki (hCA II): 66.9 nM

NS(=O)(=O)N1CCc2ccccc21 [2v, Indoline-1-sulphonamide]
Ki (hCA XII): 95.7 nM | Ki (hCA IX): 102 nM | Ki (hCA I): 723 nM | Ki (hCA II): 472 nM

NS(=O)(=O)NCc1cccs1 [2k, (Thiophen-2-ylmethyl) sulfamide]
Ki (hCA XII): 66.8 nM | Ki (hCA IX): 73.2 nM | Ki (hCA I): 22.6 nM | Ki (hCA II): 48.2 nM

NS(=O)(=O)N1CCC(c2ccccc2)CC1 [2h, 4-Phenylpiperidine-1-sulphonamide]
Ki (hCA XII): 96.7 nM | Ki (hCA IX): 58.2 nM | Ki (hCA I): 359 nM | Ki (hCA II): 120 nM

CN1CCC(NS(N)(=O)=O)CC1 [2g, (1-Methylpiperidin-4-yl)sulfamide]
Ki (hCA XII): 38.4 nM | Ki (hCA IX): 63.2 nM | Ki (hCA I): 89.7 nM | Ki (hCA II): 52.1 nM

NS(=O)(=O)NC1CCCc2ccccc21 (centres unmarked) [2d, N-(1,2,3,4-Tetrahydronaphthalen-1-yl)sulfamide]
Ki (hCA XII): 59.7 nM | Ki (hCA IX): 36.8 nM | Ki (hCA I): 121 nM | Ki (hCA II): 42.6 nM

CN1CCN(S(N)(=O)=O)CC1 [2b, 4-Methylpiperazine-1-sulphonamide]
Ki (hCA XII): 52.5 nM | Ki (hCA IX): 58.6 nM | Ki (hCA I): 64.2 nM | Ki (hCA II): 32.1 nM

CCN(CC)CCN(C)S(N)(=O)=O [2l, (2-(Diethylamino)ethyl)(methyl)sulfamide]
Ki (hCA XII): 72.5 nM | Ki (hCA IX): 126 nM | Ki (hCA I): 59.6 nM | Ki (hCA II): 92.3 nM

NS(=O)(=O)Nc1ccc(F)cc1F [2w, N-(2,4-Difluorophenyl)sulfamide]
Ki (hCA XII): 224 nM | Ki (hCA IX): 38.5 nM | Ki (hCA I): 45.7 nM | Ki (hCA II): 76.3 nM

NS(=O)(=O)N1CCC(N2CCCCC2)CC1 [2n, [1,4'-Bipiperidine]-1'-sulphonamide]
Ki (hCA XII): 35.1 nM | Ki (hCA IX): 72.5 nM | Ki (hCA I): 497 nM | Ki (hCA II): 99.3 nM

From publication PMC8933014, “Diversely substituted sulfamides for fragment-based drug discovery of carbonic anhydrase inhibitors: synthesis and inhibitory profile” (Journal of Enzyme Inhibition and Medicinal Chemistry, 2022)
